Article PMC6934184, “Selective DNA-PKcs inhibition extends the therapeutic index of localized radiotherapy and chemotherapy” (The Journal of Clinical Investigation, 2019)

Target: T1, SRC N1 (Homo sapiens, UniProt P12931)
T1 construct: purchased Thermo Fisher Scientific (Life Technologies) SelectScreen
Assay: SelectScreen Z'LYTE
Type: biochemical
Outline: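 Percent values come from Thermo SelectScreen profiling of NU5455, combining activity and binding assays. CSF1R was run in Z'LYTE format at Km app ATP, and CAMK1 in Adapta format with ATP listed at 10.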

T1 sequence (P12931 1-542 isoform P12931-2): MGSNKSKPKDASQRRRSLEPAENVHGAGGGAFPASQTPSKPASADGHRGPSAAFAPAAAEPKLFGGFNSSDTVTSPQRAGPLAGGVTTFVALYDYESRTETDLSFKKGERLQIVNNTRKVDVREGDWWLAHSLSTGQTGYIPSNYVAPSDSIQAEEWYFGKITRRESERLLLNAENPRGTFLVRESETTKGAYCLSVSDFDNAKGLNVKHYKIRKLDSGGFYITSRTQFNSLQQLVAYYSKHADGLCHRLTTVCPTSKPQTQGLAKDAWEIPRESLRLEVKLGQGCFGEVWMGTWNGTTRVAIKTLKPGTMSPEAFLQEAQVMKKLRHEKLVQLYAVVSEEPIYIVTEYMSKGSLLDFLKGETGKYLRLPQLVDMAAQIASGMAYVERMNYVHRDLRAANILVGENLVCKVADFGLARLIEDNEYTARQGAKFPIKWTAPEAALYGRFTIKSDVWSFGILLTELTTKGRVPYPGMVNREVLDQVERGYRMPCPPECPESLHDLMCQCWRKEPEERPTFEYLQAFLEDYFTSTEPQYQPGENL

Question: With `CN(C(=O)CN1CCOCC1)c1ccc2sc3c(-c4cccc5c(=O)cc(N6CC7CCC(C6)O7)oc45)cccc3c2c1` [NU5455] as the molecule, how does the inhibition at 1 µM read?
Answer: Its inhibition at 1 µM is 3.9%.
